# Experiments:
# [1] = test system: diabetic db/db mouse model; assay: Acute glucose-lowering after single dose in db/db mice; assay type: in vivo
# Pharmacokinetics = assay type: in vivo, rat; conditions: SD male rats, single dose 0.05 mg/kg, plasma, LC-MS/MS, WinNonlin, mean n=3
# [2] = test system: diet-induced obese (DIO) mice; assay: Weight loss in diet-induced obese; assay type: in vivo, mouse; conditions: 10 nmol/kg
# [3] = test system: diabetic db/db mouse model; assay: Long-term glucose-lowering after multiple doses; assay type: in vivo; conditions: db/db mice, kidney injury marker after multiple administration 10 nmol/kg
substance,measurement,setting,value
Semaglutide,time up to which the decrease of non-fasting blood glucose persisted,[1]; single dose 10 nmol/kg,24 h
same,lowest non-fasting blood glucose level,"[1]; single dose 10 nmol/kg subcutaneous, mean±SD, n=6, SD",15.57 ± 5.16 mmol/L
same,acute glucose-lowering effect compared with model group,"[1]; single dose 10 nmol/kg, non-fasting glucose 0-120 hours",comparable glucose-lowering effects
same,half-life (T1/2),Pharmacokinetics,8.17 h
same,"mean residence time (MRT0-t), 0-[…]",Pharmacokinetics,14.21 h
same,fat index,[2]; multiple administrations,reduced
same,body weight reduction,"[2]; multiple administrations over 21 days, n=5",21.54%
same,serum creatinine (Scr),[3],significantly reduced
same,urinary albumin levels,[3],significantly reduced
